Data reported in patent US11753395B2 (Kinnate Biopharma Inc., priority 2021, dated 2023).

What was measured:
[1] = molecular target: T1, Ba/F3-TPR-MET-D1228N cells (Homo sapiens, UniProt P08581, D1228N, cells depend on it); assay: CellTiter-Glo Cell Viability Assay, Ba/F3-TPR-MET-D1228N; type: cell-based; settings: 72 hours
T1 construct: fused on or other part: P12270 (Nucleoprotein TPR)
How it was run: (§1)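 IC50 values come from curve-fitted luminescence. Viable-cell ATP was read by CellTiter-Glo 2.0 after a 72 h, 37 °C incubation of 3000 TPR-MET or D1228N-mutant Ba/F3 cells per well. Compounds were tested as a 9-point, 3-fold series with 0.1% DMSO final.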

MET D1228N = molecular target: T2, MET D1228N (Homo sapiens, UniProt P08581, D1228N); assay: MET D1228N Mobility Shift Assay; settings: biochemical assay IC50; 100 μM ATP, 60 minute kinase reaction
T2 construct: purchased Signalchem M52-12IG
T2 sequence (P08581 25-1390 D1228N): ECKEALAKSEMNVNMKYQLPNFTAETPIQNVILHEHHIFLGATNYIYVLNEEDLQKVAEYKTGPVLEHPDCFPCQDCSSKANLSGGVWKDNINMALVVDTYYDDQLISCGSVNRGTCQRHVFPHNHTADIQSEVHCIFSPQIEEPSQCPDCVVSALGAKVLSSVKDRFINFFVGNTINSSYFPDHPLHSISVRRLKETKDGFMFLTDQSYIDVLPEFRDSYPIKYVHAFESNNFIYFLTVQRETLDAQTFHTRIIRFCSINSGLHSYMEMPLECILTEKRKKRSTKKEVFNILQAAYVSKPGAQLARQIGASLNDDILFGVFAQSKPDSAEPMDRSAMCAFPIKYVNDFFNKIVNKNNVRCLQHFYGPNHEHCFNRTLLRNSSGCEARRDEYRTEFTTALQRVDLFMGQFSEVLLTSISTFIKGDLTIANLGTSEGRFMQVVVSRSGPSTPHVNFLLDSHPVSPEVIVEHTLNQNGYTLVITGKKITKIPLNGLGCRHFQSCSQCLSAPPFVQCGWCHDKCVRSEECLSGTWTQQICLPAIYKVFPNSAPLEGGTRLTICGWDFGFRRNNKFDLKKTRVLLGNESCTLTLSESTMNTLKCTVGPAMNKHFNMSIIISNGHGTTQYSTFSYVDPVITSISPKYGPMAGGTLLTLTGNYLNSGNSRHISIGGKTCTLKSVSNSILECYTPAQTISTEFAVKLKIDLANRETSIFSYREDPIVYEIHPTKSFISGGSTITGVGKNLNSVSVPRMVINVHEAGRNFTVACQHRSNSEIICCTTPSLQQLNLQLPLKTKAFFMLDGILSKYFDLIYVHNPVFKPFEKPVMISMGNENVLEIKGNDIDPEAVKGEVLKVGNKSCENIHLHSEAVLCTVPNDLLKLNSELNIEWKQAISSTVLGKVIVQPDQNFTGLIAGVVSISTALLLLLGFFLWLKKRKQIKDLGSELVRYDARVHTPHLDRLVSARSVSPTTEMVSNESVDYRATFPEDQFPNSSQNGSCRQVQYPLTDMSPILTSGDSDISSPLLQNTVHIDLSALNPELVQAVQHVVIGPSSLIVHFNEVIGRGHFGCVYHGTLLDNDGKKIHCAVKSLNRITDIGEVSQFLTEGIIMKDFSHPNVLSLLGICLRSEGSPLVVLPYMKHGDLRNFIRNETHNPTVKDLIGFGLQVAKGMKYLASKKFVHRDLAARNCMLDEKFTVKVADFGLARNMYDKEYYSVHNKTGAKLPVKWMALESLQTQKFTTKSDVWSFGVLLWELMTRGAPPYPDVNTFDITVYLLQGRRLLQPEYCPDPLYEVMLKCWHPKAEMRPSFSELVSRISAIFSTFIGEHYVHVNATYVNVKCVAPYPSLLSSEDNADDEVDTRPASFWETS
How it was run: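 Microfluidic electrophoresis quantified phosphorylated versus unphosphorylated 5-FAM-KKKKEEIYFFF peptide (1.5 μM) after a 60 min reaction with 100 μM ATP. MET D1228N (0.313 nM) in 50 mM HEPES, 10 mM MgCl2, 2 mM DTT was preincubated 30 min; IC50 fitted to conversion inhibition.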

Ba/F3-TPR-MET cells = molecular target: T3, Ba/F3-TPR-MET cells (Homo sapiens, UniProt P08581); assay: CellTiter-Glo Cell Viability Assay, Ba/F3-TPR-MET; type: cell-based; settings: 72 hours
T3 construct: fused on or other part: P12270 (Nucleoprotein TPR)
How it was run: as §1

MET = molecular target: T4, MET (Homo sapiens, UniProt P08581); assay: MET Mobility Shift Assay; settings: biochemical assay IC50; 100 μM ATP, 60 minute kinase reaction
T4 construct: purchased Carna Biosciences 08-151
T4 sequence (P08581 25-1390): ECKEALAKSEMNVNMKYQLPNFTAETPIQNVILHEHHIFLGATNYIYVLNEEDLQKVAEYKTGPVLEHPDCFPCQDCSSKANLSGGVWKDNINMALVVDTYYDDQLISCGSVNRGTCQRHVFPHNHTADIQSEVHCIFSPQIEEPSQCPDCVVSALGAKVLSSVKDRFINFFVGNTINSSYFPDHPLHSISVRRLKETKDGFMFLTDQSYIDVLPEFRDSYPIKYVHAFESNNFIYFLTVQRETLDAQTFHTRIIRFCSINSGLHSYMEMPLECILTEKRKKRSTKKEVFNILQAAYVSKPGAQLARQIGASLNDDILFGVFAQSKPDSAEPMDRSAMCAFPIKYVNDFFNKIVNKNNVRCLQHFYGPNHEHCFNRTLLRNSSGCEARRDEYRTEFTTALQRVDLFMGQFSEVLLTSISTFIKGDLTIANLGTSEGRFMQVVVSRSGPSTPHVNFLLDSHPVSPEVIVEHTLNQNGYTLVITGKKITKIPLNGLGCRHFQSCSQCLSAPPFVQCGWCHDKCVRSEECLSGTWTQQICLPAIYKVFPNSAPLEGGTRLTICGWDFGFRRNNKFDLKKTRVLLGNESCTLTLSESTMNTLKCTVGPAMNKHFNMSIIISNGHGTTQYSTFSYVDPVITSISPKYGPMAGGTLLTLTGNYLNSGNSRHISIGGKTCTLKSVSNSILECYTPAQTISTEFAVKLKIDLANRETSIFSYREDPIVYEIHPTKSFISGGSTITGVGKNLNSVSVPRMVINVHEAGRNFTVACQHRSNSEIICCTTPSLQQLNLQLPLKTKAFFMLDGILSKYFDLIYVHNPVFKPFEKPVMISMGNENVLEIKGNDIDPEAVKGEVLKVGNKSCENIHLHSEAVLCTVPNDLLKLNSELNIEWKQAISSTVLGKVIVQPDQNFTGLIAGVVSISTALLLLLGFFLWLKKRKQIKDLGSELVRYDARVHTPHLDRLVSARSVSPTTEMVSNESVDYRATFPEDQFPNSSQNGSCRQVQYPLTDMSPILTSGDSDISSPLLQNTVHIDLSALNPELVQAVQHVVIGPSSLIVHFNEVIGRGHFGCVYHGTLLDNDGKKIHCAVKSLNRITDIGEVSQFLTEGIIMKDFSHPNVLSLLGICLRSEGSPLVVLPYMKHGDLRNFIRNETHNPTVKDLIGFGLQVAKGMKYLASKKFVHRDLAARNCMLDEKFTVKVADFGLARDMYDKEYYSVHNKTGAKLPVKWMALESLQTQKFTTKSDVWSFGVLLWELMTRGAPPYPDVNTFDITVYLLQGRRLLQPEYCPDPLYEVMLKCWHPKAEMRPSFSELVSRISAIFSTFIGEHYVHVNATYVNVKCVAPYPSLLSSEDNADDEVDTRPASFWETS
How it was run: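 IC50s come from inhibition of substrate-to-phosphopeptide conversion, read by electrophoretic mobility shift. Reaction: 100 μM ATP, 1.5 μM 5-FAM peptide, 0.625 nM MET, 10 mM MgCl2, 60 min, after a 30 min room-temperature enzyme pre-incubation, quenched with EDTA.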

T1 sequence (P08581 whole entry D1228N, the tested form may be a part): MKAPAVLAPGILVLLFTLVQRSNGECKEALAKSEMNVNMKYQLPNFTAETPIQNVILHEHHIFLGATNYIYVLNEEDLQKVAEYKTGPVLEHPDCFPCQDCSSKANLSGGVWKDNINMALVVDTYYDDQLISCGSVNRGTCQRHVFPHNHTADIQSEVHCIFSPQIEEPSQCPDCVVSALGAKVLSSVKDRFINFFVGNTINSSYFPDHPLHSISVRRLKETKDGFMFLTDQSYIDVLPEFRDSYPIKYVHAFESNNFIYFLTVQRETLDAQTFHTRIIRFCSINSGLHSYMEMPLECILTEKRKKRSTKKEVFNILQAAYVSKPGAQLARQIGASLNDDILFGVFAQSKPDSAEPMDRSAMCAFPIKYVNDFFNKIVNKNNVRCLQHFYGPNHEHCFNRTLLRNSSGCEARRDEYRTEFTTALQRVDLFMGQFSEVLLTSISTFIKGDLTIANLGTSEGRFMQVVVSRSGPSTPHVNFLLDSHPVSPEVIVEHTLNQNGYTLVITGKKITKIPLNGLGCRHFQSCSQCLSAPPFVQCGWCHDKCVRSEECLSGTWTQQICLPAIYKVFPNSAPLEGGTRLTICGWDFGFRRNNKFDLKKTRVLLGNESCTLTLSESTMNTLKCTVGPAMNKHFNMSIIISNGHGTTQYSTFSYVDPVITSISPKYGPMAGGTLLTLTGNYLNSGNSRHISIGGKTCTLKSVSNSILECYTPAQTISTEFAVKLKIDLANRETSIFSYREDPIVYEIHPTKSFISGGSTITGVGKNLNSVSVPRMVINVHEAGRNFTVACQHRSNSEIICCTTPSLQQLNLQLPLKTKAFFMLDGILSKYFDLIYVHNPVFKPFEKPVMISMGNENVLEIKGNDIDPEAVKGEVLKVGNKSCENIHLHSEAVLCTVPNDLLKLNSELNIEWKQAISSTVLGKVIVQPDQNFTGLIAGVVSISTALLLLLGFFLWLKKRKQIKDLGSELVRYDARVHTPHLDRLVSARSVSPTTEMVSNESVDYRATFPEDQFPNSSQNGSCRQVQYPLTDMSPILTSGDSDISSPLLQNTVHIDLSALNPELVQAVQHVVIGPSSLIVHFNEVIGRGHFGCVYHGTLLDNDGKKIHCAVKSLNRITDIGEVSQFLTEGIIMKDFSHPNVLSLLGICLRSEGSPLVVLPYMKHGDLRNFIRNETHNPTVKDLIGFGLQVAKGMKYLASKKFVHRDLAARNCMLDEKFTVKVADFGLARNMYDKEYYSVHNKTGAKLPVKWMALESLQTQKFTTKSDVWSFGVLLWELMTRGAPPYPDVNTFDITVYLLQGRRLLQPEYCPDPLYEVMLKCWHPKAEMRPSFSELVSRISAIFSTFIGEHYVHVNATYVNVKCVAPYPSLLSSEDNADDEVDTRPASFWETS

| Structure (SMILES) | IC50 (MET D1228N) [nM] | IC50 (MET) [nM] | EC50 [1] [nM] | EC50 (Ba/F3-TPR-MET cells) [nM] |
| --- | --- | --- | --- | --- |
| CNCCOc1cc2nccc(Oc3c(F)cc(NC(=O)c4cnc(C)cc4OC4CC4)cc3F)c2cc1OC [Example 117, 4-cyclopropoxy-N-[3,5-difluoro-4-({6-methoxy-7-[2-(methylamino)ethoxy]quinolin-4-yl}oxy)phenyl]-6-methylpyridine-3-carboxamide] | ≤ 100 | ≤ 100 | ≤ 100 | ≤ 100 |
| CNCCOc1cc2nccc(Oc3c(F)cc(NC(=O)c4cnccc4OC4CCC4)cc3F)c2cc1OC [Example 55, 4-cyclobutoxy-N-(3,5-difluoro-4-((6-methoxy-7-(2-(methylamino)ethoxy)quinolin-4-yl)oxy)phenyl)pyridine-3-carboxamide] | ≤ 100 | ≤ 100 | ≤ 100 | 100 to 1000 |
| COc1cc2c(Oc3c(F)cc(NC(=O)c4cnccc4OC)cc3F)ccnc2cc1OCC(C)(C)O [Example 39, N-(3,5-difluoro-4-((7-(2-hydroxy-2-methylpropoxy)-6-methoxyquinolin-4-yl)oxy)phenyl)-4-methoxypyridine-3-carboxamide] | ≤ 100 | ≤ 100 | ≤ 100 | 100 to 1000 |
| COc1ccncc1C(=O)Nc1cc(F)c(Oc2ccnc3cc(OC)c(OC4(CO)CC4)nc23)c(F)c1 [Example 147, N-(3,5-difluoro-4-((6-(1-(hydroxymethyl)cyclopropoxy)-7-methoxy-1,5-naphthyridin-4-yl)oxy)phenyl)-4-methoxynicotinamide] | ≤ 100 | ≤ 100 | ≤ 100 | ≤ 100 |
| CNCCOc1cc2nccc(Oc3c(F)cc(NC(=O)c4cnccc4OC[C@@H](C)O)cc3F)c2cc1OC [Example 65, (R)-N-(3,5-difluoro-4-((6-methoxy-7-(2-(methylamino)ethoxy)quinolin-4-yl)oxy)phenyl)-4-(2-hydroxypropoxy)pyridine-3-carboxamide] | ≤ 100 | ≤ 100 | ≤ 100 | 100 to 1000 |
| COc1cc2c(Oc3c(F)cc(NC(=O)c4cnccc4OCC(F)F)cc3F)ccnc2cc1OCCO [Example 135, N-(3,5-difluoro-4-((7-(2-hydroxyethoxy)-6-methoxyquinolin-4-yl)oxy)phenyl)-4-(2,2-difluoroethoxy)pyridine-3-carboxamide] | ≤ 100 | ≤ 100 | ≤ 100 | ≤ 100 |
| COc1cc2nccc(Oc3c(F)cc(NC(=O)c4cnccc4OC)cc3F)c2cc1OC1(CO)CC1 [Example 132, N-(3,5-difluoro-4-((6-(1-(hydroxymethyl)cyclopropoxy)-7-methoxyquinolin-4-yl)oxy)phenyl)-4-methoxynicotinamide] | ≤ 100 | ≤ 100 | ≤ 100 | ≤ 100 |
| CNCCOc1cc2nccc(Oc3c(F)cc(NC(=O)c4cnccc4OC(F)F)cc3F)c2cc1OC [Example 47, N-(3,5-difluoro-4-((6-methoxy-7-(2-(methylamino)ethoxy)quinolin-4-yl)oxy)phenyl)-4-(difluoromethoxy)pyridine-3-carboxamide] | ≤ 100 | ≤ 100 | 100 to 1000 | 100 to 1000 |
| COCCOc1ccc2c(Oc3c(F)cc(NC(=O)c4cnccc4OC)cc3F)ccnc2c1 [Example 42, N-(3,5-difluoro-4-{[7-(2-methoxyethoxy)quinolin-4-yl]oxy}phenyl)-4-methoxypyridine-3-carboxamide] | ≤ 100 | ≤ 100 | ≤ 100 | 100 to 1000 |

Further lines, with some results ahead:

| IC50 (MET D1228N) [nM] | IC50 (MET) [nM] | Structure (SMILES) | EC50 [1] [nM] | EC50 (Ba/F3-TPR-MET cells) [nM] |
| --- | --- | --- | --- | --- |
| ≤ 100 | ≤ 100 | CNCCOc1cc2nccc(Oc3c(F)cc(NC(=O)c4cnc(C)cc4OC)cc3F)c2cc1OC [Example 45, N-(3,5-difluoro-4-((6-methoxy-7-(2-(methylamino)ethoxy)quinolin-4-yl)oxy)phenyl)-4-methoxy-6-methylpyridine-3-carboxamide] | 100 to 1000 | 100 to 1000 |
| ≤ 100 | ≤ 100 | CNCCCOc1cc2nccc(Oc3c(F)cc(NC(=O)c4c(OC)ccnc4F)cc3F)c2cc1OC [Example 20, N-(3,5-difluoro-4-((6-methoxy-7-(3-(methylamino)propoxy)quinolin-4-yl)oxy)phenyl)-2-fluoro-4-methoxypyridine-3-carboxamide] | ≤ 100 | ≤ 100 |
| ≤ 100 | ≤ 100 | COCCOc1ccc2c(Oc3c(F)cc(NC(=O)c4nnccc4OC4CC4)cc3F)ccnc2c1 [Example 120, 4-cyclopropoxy-N-(3,5-difluoro-4-((7-(2-methoxyethoxy)quinolin-4-yl)oxy)phenyl)pyridazine-3-carboxamide] | 100 to 1000 | 100 to 1000 |
| ≤ 100 | ≤ 100 | COc1cc2c(Oc3c(F)cc(NC(=O)c4cnccc4OC)cc3F)ccnc2cc1OCCO [Example 121, N-(3,5-difluoro-4-((7-(2-hydroxyethoxy)-6-methoxyquinolin-4-yl)oxy)phenyl)-4-methoxypyridine-3-carboxamide] | ≤ 100 | ≤ 100 |
| ≤ 100 | ≤ 100 | COc1cc2nccc(Oc3c(F)cc(NC(=O)c4cnccc4OC)cc3F)c2cc1OC [Example 34, N-(4-((6,7-dimethoxyquinolin-4-yl)oxy)-3,5-difluorophenyl)-4-methoxypyridine-3-carboxamide] | ≤ 100 | 100 to 1000 |
| ≤ 100 | ≤ 100 | CNCCOc1cc2nccc(Oc3c(F)cc(NC(=O)c4cnccc4OCC4CC4)cc3F)c2cc1OC [Example 72, 4-(cyclopropylmethoxy)-N-[3,5-difluoro-4-({6-methoxy-7-[2-(methylamino)ethoxy]quinolin-4-yl}oxy)phenyl]pyridine-3-carboxamide] | ≤ 100 | 100 to 1000 |
| ≤ 100 | ≤ 100 | CNCCOc1ccc2c(Oc3c(F)cc(NC(=O)c4cnccc4OC4CC4)c(F)c3F)ccnc2c1 [Example 94, 4-cyclopropoxy-N-[2,3,5-trifluoro-4-({7-[2-(methylamino)ethoxy]quinolin-4-yl}oxy)phenyl]pyridine-3-carboxamide] | ≤ 100 | ≤ 100 |
| ≤ 100 | ≤ 100 | C#CCOc1ccncc1C(=O)Nc1cc(F)c(Oc2ccnc3cc(OCCNC)c(OC)cc23)c(F)c1 [Example 73, N-[3,5-difluoro-4-({6-methoxy-7-[2-(methylamino)ethoxy]quinolin-4-yl}oxy)phenyl]-4-(prop-2-yn-1-yloxy)pyridine-3-carboxamide] | ≤ 100 | ≤ 100 |
| ≤ 100 | ≤ 100 | COc1cc2nccc(Oc3c(F)cc(NC(=O)c4cnccc4OC)cc3F)c2cc1OC[C@@H](C)O [Example 124, (R)-N-(3,5-difluoro-4-{[6-(2-hydroxypropoxy)-7-methoxyquinolin-4-yl]oxy}phenyl)-4-methoxypyridine-3-carboxamide] | ≤ 100 | ≤ 100 |
| ≤ 100 | ≤ 100 | CNCCOc1cc2nccc(Oc3c(F)cc(NC(=O)c4cnccc4OCC(F)F)cc3F)c2cc1OC [Example 60, N-[3,5-difluoro-4-({6-methoxy-7-[2-(methylamino)ethoxy]quinolin-4-yl}oxy)phenyl]-4-(2,2-difluoroethoxy)pyridine-3-carboxamide] | ≤ 100 | ≤ 100 |
